Tested on: adult patients with OSA and ES
Assay: MWT, 12-week placebo-controlled parallel study in OSA
Type: in vivo, human
Conditions: for MWT mean sleep latency increase from baseline >=5 minutes, subjects / MWT mean sleep latency increase from baseline >=10 minutes, subjects / MWT mean sleep latency increase from baseline >=15 minutes, subjects / MWT mean sleep latency increase from baseline >=20 minutes, subjects / MWT mean sleep latency increase from baseline >=25 minutes, subjects / MWT mean sleep latency increase from baseline >=30 minutes, subjects: mITT
Experimental: The MWT is an objective test used to measure how alert a subject is during the day. The test consists of four sleep trials with two hours in between the trials. The first trial is performed 1.5-3 hours after the subject's normal wake-up time. Sensors are placed on the head, face, and chin to detect when the subject is asleep and awake during the test. The subject sits quietly in bed with his or her back and head supported by a pillow and is asked to sit still and look straight ahead while trying to stay awake as long as possible. Each trial lasts 40 minutes or until the subject is asleep for 90 seconds. Between trials, the subject stays out of bed and occupies himself or herself to remain awake. Falling asleep in an average of less than eight minutes is considered abnormal. About 40-60% of subjects with normal sleep stay awake for the entire 40 minutes of all four trials.
The study was a 12-week, double-blind, placebo-controlled, parallel design study as described in greater detail in Example 1 (Schweitzer et al., Sleep 40(Abstract Supplement):A237. Abstract 0641 (2017)). Patients were randomized (1:1:2:2:2) to APC 37.5, 75, 150, 300 mg, or placebo for 12 weeks, and were stratified by adherence or non-adherence with primary OSA therapy (adherent definition was use for ≥4 hours per night on >70% of nights). Two patient-reported measures were included as secondary efficacy outcomes to evaluate the effects of APC on functional status and work productivity and activity impairment at baseline and weeks 1, 4, 8, and 12. The Functional Outcomes of Sleep questionnaire short version (FOSQ-10) (Chasens et al., Sleep 32(7):915 (2009)) evaluated the effects of ES on functioning. The Work Productivity and Activity Impairment questionnaire for Specific Health Problems (WPAI:SHP) (Reilly et al., Pharmacoeconomics 4(5):353 (1993); Reilly, Work Productivity and Activity Impairment Questionnaire: Specific Health Problem V2.0 (WPAI: SHP). www.reillyassociates.net/WPAI_SHP) evaluated work productivity impairment among employed patients and overall activity impairment outside of work among all patients for the past 7 days. Four outcomes are available from the WPAI:SHP: Absenteeism (percent work time missed due to health); Presenteeism (percent impairment while working due to health); Percent overall work impairment (calculated from absenteeism and presenteeism); and Percent activity impairment due to health. The FOSQ-10 was evaluated as change over time compared with placebo (least squares (LS) mean); the 4 WPAI outcomes were evaluated at week 12 compared to placebo. Efficacy analyses were based on the modified intent-to-treat population (mITT) and there was no multiplicity adjustment for the FOSQ-10 or WPAI:SHP. Safety and tolerability were assessed based on treatment-emergent adverse events (TEAEs), vital signs, electrocardiogram test, physical exams, Columbia-Suicide Severity Rating Scale, and laboratory tests in the safety population.
This was a 12-week, double-blind, placebo-controlled, parallel-design study. Patients were randomized (1:1:2:2:2) to APC 37.5 mg, 75 mg, 150 mg, or 300 mg, or placebo for 12 weeks, and were stratified by adherence or nonadherence with primary OSA therapy.

[1] = Week 12, Combined JZP-110 doses

NC(=O)OC[C@H](N)Cc1ccccc1 [JZP-110, (R)-2-amino-3-phenylpropyl carbamate]
Co-primary MWT endpoint (37.5, 75, 150, 300 mg, week 12): met at all doses | MWT mean sleep latency increase from baseline >=5 minutes, subjects (Week 1, 37.5 mg): 4 (22.2) n (%) | MWT mean sleep latency increase from baseline >=10 minutes, subjects (Week 1, 37.5 mg): 2 (11.1) n (%) | MWT mean sleep latency increase from baseline >=15 minutes, subjects (Week 1, 37.5 mg): 2 (11.1) n (%) | MWT mean sleep latency increase from baseline >=20 minutes, subjects (Week 1, 37.5 mg): 2 (11.1) n (%) | MWT mean sleep latency increase from baseline >=25 minutes, subjects (Week 1, 37.5 mg): 0 n (%) | MWT mean sleep latency increase from baseline >=30 minutes, subjects (Week 1, 37.5 mg): 0 n (%) | MWT mean sleep latency increase from baseline >=5 minutes, subjects (Week 1, 75 mg): 11 (64.7) n (%) | MWT mean sleep latency increase from baseline >=10 minutes, subjects (Week 1, 75 mg): 6 (35.3) n (%) | MWT mean sleep latency increase from baseline >=15 minutes, subjects (Week 1, 75 mg): 4 (23.5) n (%) | MWT mean sleep latency increase from baseline >=20 minutes, subjects (Week 1, 75 mg): 1 (5.9) n (%) | MWT mean sleep latency increase from baseline >=25 minutes, subjects (Week 1, 75 mg): 1 (5.9) n (%) | MWT mean sleep latency increase from baseline >=30 minutes, subjects (Week 1, 75 mg): 0 n (%) | MWT mean sleep latency increase from baseline >=5 minutes, subjects (Week 1, 150 mg): 27 (81.8) n (%) | MWT mean sleep latency increase from baseline >=10 minutes, subjects (Week 1, 150 mg): 22 (66.7) n (%) | MWT mean sleep latency increase from baseline >=15 minutes, subjects (Week 1, 150 mg): 13 (39.4) n (%) | MWT mean sleep latency increase from baseline >=20 minutes, subjects (Week 1, 150 mg): 9 (27.3) n (%) | MWT mean sleep latency increase from baseline >=25 minutes, subjects (Week 1, 150 mg): 4 (12.1) n (%) | MWT mean sleep latency increase from baseline >=30 minutes, subjects (Week 1, 150 mg): 2 (6.1) n (%) | MWT mean sleep latency increase from baseline >=5 minutes, subjects (Week 1, 300 mg): 28 (75.7) n (%) | MWT mean sleep latency increase from baseline >=10 minutes, subjects (Week 1, 300 mg): 22 (59.5) n (%) | MWT mean sleep latency increase from baseline >=15 minutes, subjects (Week 1, 300 mg): 19 (51.4) n (%) | MWT mean sleep latency increase from baseline >=20 minutes, subjects (Week 1, 300 mg): 14 (37.8) n (%) | MWT mean sleep latency increase from baseline >=25 minutes, subjects (Week 1, 300 mg): 7 (18.9) n (%) | MWT mean sleep latency increase from baseline >=30 minutes, subjects (Week 1, 300 mg): 4 (10.8) n (%) | MWT mean sleep latency increase from baseline >=5 minutes, subjects (Week 1, Combined JZP-110 doses): 70 (66.7) n (%) | MWT mean sleep latency increase from baseline >=10 minutes, subjects (Week 1, Combined JZP-110 doses): 52 (49.5) n (%) | MWT mean sleep latency increase from baseline >=15 minutes, subjects (Week 1, Combined JZP-110 doses): 38 (36.2) n (%) | MWT mean sleep latency increase from baseline >=20 minutes, subjects (Week 1, Combined JZP-110 doses): 26 (24.8) n (%) | MWT mean sleep latency increase from baseline >=25 minutes, subjects (Week 1, Combined JZP-110 doses): 12 (11.4) n (%) | MWT mean sleep latency increase from baseline >=30 minutes, subjects (Week 1, Combined JZP-110 doses): 6 (5.7) n (%) | MWT mean sleep latency increase from baseline >=5 minutes, subjects (Week 4, 37.5 mg): 21 (42.0) n (%) | MWT mean sleep latency increase from baseline >=10 minutes, subjects (Week 4, 37.5 mg): 16 (32.0) n (%) | MWT mean sleep latency increase from baseline >=15 minutes, subjects (Week 4, 37.5 mg): 7 (14.0) n (%) | MWT mean sleep latency increase from baseline >=20 minutes, subjects (Week 4, 37.5 mg): 4 (8.0) n (%) | MWT mean sleep latency increase from baseline >=25 minutes, subjects (Week 4, 37.5 mg): 0 n (%) | MWT mean sleep latency increase from baseline >=30 minutes, subjects (Week 4, 37.5 mg): 0 n (%) | MWT mean sleep latency increase from baseline >=5 minutes, subjects (Week 4, 75 mg): 34 (61.8) n (%) | MWT mean sleep latency increase from baseline >=10 minutes, subjects (Week 4, 75 mg): 25 (45.5) n (%) | MWT mean sleep latency increase from baseline >=15 minutes, subjects (Week 4, 75 mg): 11 (20.0) n (%) | MWT mean sleep latency increase from baseline >=20 minutes, subjects (Week 4, 75 mg): 5 (9.1) n (%) | MWT mean sleep latency increase from baseline >=25 minutes, subjects (Week 4, 75 mg): 2 (3.6) n (%) | MWT mean sleep latency increase from baseline >=30 minutes, subjects (Week 4, 75 mg): 1 (1.8) n (%) | MWT mean sleep latency increase from baseline >=5 minutes, subjects (Week 4, 150 mg): 83 (76.9) n (%) | MWT mean sleep latency increase from baseline >=10 minutes, subjects (Week 4, 150 mg): 54 (50.0) n (%) | MWT mean sleep latency increase from baseline >=15 minutes, subjects (Week 4, 150 mg): 40 (37.0) n (%) | MWT mean sleep latency increase from baseline >=20 minutes, subjects (Week 4, 150 mg): 26 (24.1) n (%) | MWT mean sleep latency increase from baseline >=25 minutes, subjects (Week 4, 150 mg): 13 (12.0) n (%) | MWT mean sleep latency increase from baseline >=30 minutes, subjects (Week 4, 150 mg): 3 (2.8) n (%) | MWT mean sleep latency increase from baseline >=5 minutes, subjects (Week 4, 300 mg): 79 (78.2) n (%) | MWT mean sleep latency increase from baseline >=10 minutes, subjects (Week 4, 300 mg): 63 (62.4) n (%) | MWT mean sleep latency increase from baseline >=15 minutes, subjects (Week 4, 300 mg): 47 (46.5) n (%) | MWT mean sleep latency increase from baseline >=20 minutes, subjects (Week 4, 300 mg): 32 (31.7) n (%) | MWT mean sleep latency increase from baseline >=25 minutes, subjects (Week 4, 300 mg): 15 (14.9) n (%) | MWT mean sleep latency increase from baseline >=30 minutes, subjects (Week 4, 300 mg): 5 (5.0) n (%) | MWT mean sleep latency increase from baseline >=5 minutes, subjects (Week 4, Combined JZP-110 doses): 217 (69.1) n (%) | MWT mean sleep latency increase from baseline >=10 minutes, subjects (Week 4, Combined JZP-110 doses): 158 (50.3) n (%) | MWT mean sleep latency increase from baseline >=15 minutes, subjects (Week 4, Combined JZP-110 doses): 105 (33.4) n (%) | MWT mean sleep latency increase from baseline >=20 minutes, subjects (Week 4, Combined JZP-110 doses): 67 (21.3) n (%) | MWT mean sleep latency increase from baseline >=25 minutes, subjects (Week 4, Combined JZP-110 doses): 30 (9.6) n (%) | MWT mean sleep latency increase from baseline >=30 minutes, subjects (Week 4, Combined JZP-110 doses): 9 (2.9) n (%) | MWT mean sleep latency increase from baseline >=5 minutes, subjects (Week 12, 37.5 mg): 18 (36.7) n (%) | MWT mean sleep latency increase from baseline >=10 minutes, subjects (Week 12, 37.5 mg): 16 (32.7) n (%) | MWT mean sleep latency increase from baseline >=15 minutes, subjects (Week 12, 37.5 mg): 10 (20.4) n (%) | MWT mean sleep latency increase from baseline >=20 minutes, subjects (Week 12, 37.5 mg): 5 (10.2) n (%) | MWT mean sleep latency increase from baseline >=25 minutes, subjects (Week 12, 37.5 mg): 0 n (%) | MWT mean sleep latency increase from baseline >=30 minutes, subjects (Week 12, 37.5 mg): 0 n (%) | MWT mean sleep latency increase from baseline >=5 minutes, subjects (Week 12, 75 mg): 35 (64.8) n (%) | MWT mean sleep latency increase from baseline >=10 minutes, subjects (Week 12, 75 mg): 25 (46.3) n (%) | MWT mean sleep latency increase from baseline >=15 minutes, subjects (Week 12, 75 mg): 15 (27.8) n (%) | MWT mean sleep latency increase from baseline >=20 minutes, subjects (Week 12, 75 mg): 7 (13.0) n (%) | MWT mean sleep latency increase from baseline >=25 minutes, subjects (Week 12, 75 mg): 3 (5.6) n (%) | MWT mean sleep latency increase from baseline >=30 minutes, subjects (Week 12, 75 mg): 1 (1.9) n (%) | MWT mean sleep latency increase from baseline >=5 minutes, subjects (Week 12, 150 mg): 71 (67.6) n (%) | MWT mean sleep latency increase from baseline >=10 minutes, subjects (Week 12, 150 mg): 53 (50.5) n (%) | MWT mean sleep latency increase from baseline >=15 minutes, subjects (Week 12, 150 mg): 39 (37.1) n (%) | MWT mean sleep latency increase from baseline >=20 minutes, subjects (Week 12, 150 mg): 26 (24.8) n (%) | MWT mean sleep latency increase from baseline >=25 minutes, subjects (Week 12, 150 mg): 13 (12.4) n (%) | MWT mean sleep latency increase from baseline >=30 minutes, subjects (Week 12, 150 mg): 0 n (%) | MWT mean sleep latency increase from baseline >=5 minutes, subjects (Week 12, 300 mg): 69 (75.0) n (%) | MWT mean sleep latency increase from baseline >=10 minutes, subjects (Week 12, 300 mg): 60 (65.2) n (%) | MWT mean sleep latency increase from baseline >=15 minutes, subjects (Week 12, 300 mg): 40 (43.5) n (%) | MWT mean sleep latency increase from baseline >=20 minutes, subjects (Week 12, 300 mg): 26 (28.3) n (%) | MWT mean sleep latency increase from baseline >=25 minutes, subjects (Week 12, 300 mg): 12 (13.0) n (%) | MWT mean sleep latency increase from baseline >=30 minutes, subjects (Week 12, 300 mg): 6 (6.5) n (%) | MWT mean sleep latency increase from baseline >=5 minutes, subjects [1]: 193 (64.3) n (%) | MWT mean sleep latency increase from baseline >=10 minutes, subjects [1]: 154 (51.3) n (%) | MWT mean sleep latency increase from baseline >=15 minutes, subjects [1]: 104 (34.7) n (%) | MWT mean sleep latency increase from baseline >=20 minutes, subjects [1]: 64 (21.3) n (%) | MWT mean sleep latency increase from baseline >=25 minutes, subjects [1]: 28 (9.3) n (%) | MWT mean sleep latency increase from baseline >=30 minutes, subjects [1]: 7 (2.3) n (%)
